The subject of assay [1] is HCV genotype 1a (H77 strain) replicon in HUH-7 cells. Briefly: HCV replicon luciferase reporter assay, genotype 1a. The format is cell-based. The following applies: Hepatitis C virus, Huh-7, 72 h, HCV genotype 1a replicon luciferase, 3 days incubation. In outline: (§1)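 Replicon inhibition for both genotypes was measured as Renilla luciferase signal (EnduRen, 7.5 μM final, 2 h) after 3-day, 37° C exposure of replicon-bearing HUH-7 cells in 4% FCS DMEM, 0.5% DMSO. The 1b construct carries S1179I; the 1a H77 construct carries P1496L and S2204I. Twenty-point, 3-fold dilutions were fitted four-parametrically for EC50, and CC50 was taken from multiplexed Cell Titer-Blue.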

Assay [2] has as its system HCV genotype 1b (Con1) replicon in HUH-7 cells. Briefly: HCV replicon luciferase reporter assay, genotype 1b. The format is cell-based. The following applies: Hepatitis C virus, Huh-7, 72 h, HCV genotype 1b replicon luciferase, 3 days incubation. In short, it runs like this: as §1
The mark [3] stands for this setting: GETYPE1A, read-out: LE_1a (EC50, range).
Setting [4] is: GETYPE1B, read-out: LE_1b (EC50, range).

The structures appear in SMILES notation. Read-outs that look alike come from different tables or passages of the source.

For `CCOc1ccc2nc(C(F)(F)F)c(O[C@@H]3C[C@H]4C(=O)N[C@]5(C(=O)NS(=O)(=O)C6(C)CC6)C[C@H]5/C=C\CC[C@@H](C)C[C@@H](C)[C@H](NC(=O)OC(C)(C)C)C(=O)N4C3)nc2c1` [Compound 4346, tert-butyl ((2R,6S,7R,9R,13aS,14aR,16aS,Z)-2-((7-ethoxy-3-(trifluoromethyl)quinoxalin-2-yl)oxy)-7,9-dimethyl-14a-(((1-methylcyclopropyl)sulfonyl)carbamoyl)-5,16-dioxo-1,2,3,5,6,7,8,9,10,11,13a,14,14a,15,16,16a-hexadecahydrocyclopropa[e]pyrrolo[1,2-a][1,4]diazacyclopentadecin-6-yl)carbamate], the EC50 in assay [1] (read-out: LE_1a (EC50, range)) was in the range of 0.51 to 1 nM; in assay [2] (read-out: LE_1b (EC50, range)), 0.1 to 0.5 nM.

Regarding `CCOc1ccc2nc(C(F)(F)F)c(O[C@@H]3C[C@H]4C(=O)N[C@]5(C(=O)NS(=O)(=O)C6(C)CC6)C[C@H]5/C=C\CC[C@H](C)C[C@@H](C)[C@H](NC(=O)OC(C)(C)C)C(=O)N4C3)nc2c1` [Compound 4347, tert-butyl ((2R,6S,7R,9S,13aS,14aR,16aS,Z)-2-((7-ethoxy-3-(trifluoromethyl)quinoxalin-2-yl)oxy)-7,9-dimethyl-14a-(((1-methylcyclopropyl)sulfonyl)carbamoyl)-5,16-dioxo-1,2,3,5,6,7,8,9,10,11,13a,14,14a,15,16,16a-hexadecahydrocyclopropa[e]pyrrolo[1,2-a][1,4]diazacyclopentadecin-6-yl)carbamate], the EC50 in assay [1] (read-out: LE_1a (EC50, range)) lay in the range of 5.01 to 35 nM; in assay [2] (read-out: LE_1b (EC50, range)), 1.01 to 5 nM.

Take `CCOc1ccc2nc(C(F)(F)F)c(O[C@@H]3C[C@H]4C(=O)N[C@]5(C(=O)NS(=O)(=O)C6(C)CC6)C[C@H]5/C=C\CC[C@@H](C)C[C@@H](C)[C@H](NC(=O)OC(C)(C)C(F)(F)F)C(=O)N4C3)nc2c1` [Compound 4348]: the values for the EC50 in assay [1] (setting [3]) and in assay [2] (setting [4]) were 0.51 to 1 nM and 0.1 to 0.5 nM, respectively.

With `CCOc1ccc2nc(C(F)(F)F)c(O[C@@H]3C[C@H]4C(=O)N[C@]5(C(=O)NS(=O)(=O)C6(C)CC6)C[C@H]5/C=C\CC[C@H](C)C[C@@H](C)[C@H](NC(=O)OC(C)(C)C(F)(F)F)C(=O)N4C3)nc2c1` [Compound 4349], the EC50 lay in the range of 5.01 to 35 nM in assay [1] (setting [3]) and 1.01 to 5 nM in assay [2] (setting [4]).

With `CC[C@@H]1C[C@H](C)CC/C=C\[C@@H]2C[C@@]2(C(=O)NS(=O)(=O)C2(C)CC2)NC(=O)[C@@H]2C[C@@H](Oc3nc4cc(OC(C)C)ccc4nc3C(F)(F)F)CN2C(=O)[C@H]1NC(=O)OC(C)(C)C(F)(F)F` [Compound 4350], the EC50 in assay [1] (GETYPE1A, read-out: LE_1a (EC50)) was 1.49 nM; in assay [1] (setting [3]) it was 1.01 to 5 nM; in assay [2] (GETYPE1B, read-out: LE_1b (EC50)), 0.88 nM; in assay [2] (setting [4]) it was 0.51 to 1 nM.

As for `COc1cc2nc(C(F)(F)F)c(OC)nc2cc1O[C@@H]1C[C@H]2C(=O)N[C@]3(C(=O)NS(=O)(=O)C4(C)CC4)C[C@H]3/C=C\CC[C@@H](C)C[C@@H](C)[C@H](NC(=O)OC(C)(C)C)C(=O)N2C1` [Compound 4351, tert-butyl ((2R,6S,7R,9R,13aS,14aR,16aS,Z)-2-((3,7-dimethoxy-2-(trifluoromethyl)quinoxalin-6-yl)oxy)-7,9-dimethyl-14a-(((1-methylcyclopropyl)sulfonyl)carbamoyl)-5,16-dioxo-1,2,3,5,6,7,8,9,10,11,13a,14,14a,15,16,16a-hexadecahydrocyclopropa[e]pyrrolo[1,2-a][1,4]diazacyclopentadecin-6-yl)carbamate], the EC50 lay in the range of 5.01 to 35 nM in assay [1] (read-out: LE_1a (EC50, range)) and 1.01 to 5 nM in assay [2] (read-out: LE_1b (EC50, range)).

On to `COc1cc2nc(C(F)(F)F)c(OC)nc2cc1O[C@@H]1C[C@H]2C(=O)N[C@]3(C(=O)NS(=O)(=O)C4(C)CC4)C[C@H]3/C=C\CC[C@H](C)C[C@@H](C)[C@H](NC(=O)OC(C)(C)C)C(=O)N2C1` [Compound 4352, tert-butyl ((2R,6S,7R,9S,13aS,14aR,16aS,Z)-2-((3,7-dimethoxy-2-(trifluoromethyl)quinoxalin-6-yl)oxy)-7,9-dimethyl-14a-(((1-methylcyclopropyl)sulfonyl)carbamoyl)-5,16-dioxo-1,2,3,5,6,7,8,9,10,11,13a,14,14a,15,16,16a-hexadecahydrocyclopropa[e]pyrrolo[1,2-a][1,4]diazacyclopentadecin-6-yl)carbamate], for which the EC50 in assay [1] (read-out: LE_1a (EC50, range)) was 35 to 620 nM; in assay [2] (read-out: LE_1b (EC50, range)), 35 to 620 nM.

Regarding `COc1cc2nc(C(F)(F)F)c(OC)nc2cc1O[C@@H]1C[C@H]2C(=O)N[C@]3(C(=O)NS(=O)(=O)C4(C)CC4)C[C@H]3/C=C\CC[C@@H](C)C[C@@H](C)[C@H](NC(=O)OC(C)(C)C(F)(F)F)C(=O)N2C1` [Compound 4353], the figures for the EC50 in assay [1] (setting [3]) and in assay [2] (setting [4]) were 5.01 to 35 nM and 1.01 to 5 nM, respectively.

Turning to `COc1cc2nc(C(F)(F)F)c(OC)nc2cc1O[C@@H]1C[C@H]2C(=O)N[C@]3(C(=O)NS(=O)(=O)C4(C)CC4)C[C@H]3/C=C\CC[C@H](C)C[C@@H](C)[C@H](NC(=O)OC(C)(C)C(F)(F)F)C(=O)N2C1` [Compound 4354], the EC50 in assay [1] (setting [3]) and in assay [2] (setting [4]) was 35 to 620 nM in each case.

Take `CC[C@@H]1C[C@H](C)CC/C=C\[C@@H]2C[C@@]2(C(=O)NS(=O)(=O)C2(C)CC2)NC(=O)[C@@H]2C[C@@H](Oc3ncc(OC)c4ccc(F)cc34)CN2C(=O)[C@H]1NC(=O)c1ccn(C)n1` [Compound 4356, (2R,6S,7R,9R,13aS,14aR,16aS,Z)-7-ethyl-2-((7-fluoro-4-methoxyisoquinolin-1-yl)oxy)-9-methyl-6-(1-methyl-1H-pyrazole-3-carboxamido)-N-((1-methylcyclopropyl)sulfonyl)-5,16-dioxo-1,2,3,5,6,7,8,9,10,11,13a,14,14a,15,16,16a-hexadecahydrocyclopropa[e]pyrrolo[1,2-a][1,4]diazacyclopentadecine-14a-carboxamide]: the EC50 in assay [1] (read-out: LE_1a (EC50, range)) was 0.51 to 1 nM; in assay [2] (read-out: LE_1b (EC50, range)) it was 0.1 to 0.5 nM.

Consider `CC[C@@H]1C[C@H](C)CC/C=C\[C@@H]2C[C@@]2(C(=O)NS(=O)(=O)C2(C)CC2)NC(=O)[C@@H]2C[C@@H](Oc3ncc(OC)c4ccc(F)cc34)CN2C(=O)[C@H]1NC(=O)O[C@H](C)C(F)(F)F` [Compound 4357, (R)-1,1,1-trifluoropropan-2-yl ((2R,6S,7R,9R,13aS,14aR,16aS,Z)-7-ethyl-2-((7-fluoro-4-methoxyisoquinolin-1-yl)oxy)-9-methyl-14a-(((1-methylcyclopropyl)sulfonyl)carbamoyl)-5,16-dioxo-1,2,3,5,6,7,8,9,10,11,13a,14,14a,15,16,16a-hexadecahydrocyclopropa[e]pyrrolo[1,2-a][1,4]diazacyclopentadecin-6-yl)carbamate], for which the EC50 was in the range of 1.01 to 5 nM in assay [1] (read-out: LE_1a (EC50, range)) and 0.51 to 1 nM in assay [2] (read-out: LE_1b (EC50, range)).

Turning to `CCOc1ccc2nc(O)c(O[C@@H]3C[C@H]4C(=O)N[C@]5(C(=O)NS(=O)(=O)C6(C)CC6)C[C@H]5/C=C\CC[C@@H](C)C[C@@H](CC)[C@H](NC(=O)OC(C)(C)C)C(=O)N4C3)nc2c1` [Compound 4361, tert-butyl ((2R,6S,7R,9R,13aS,14aR,16aS,Z)-2-((7-ethoxy-3-hydroxyquinoxalin-2-yl)oxy)-7-ethyl-9-methyl-14a-(((1-methylcyclopropyl)sulfonyl)carbamoyl)-5,16-dioxo-1,2,3,5,6,7,8,9,10,11,13a,14,14a,15,16,16a-hexadecahydrocyclopropa[e]pyrrolo[1,2-a][1,4]diazacyclopentadecin-6-yl)carbamate], the concentration giving a half-maximal response (EC50) in assay [1] (read-out: LE_1a (EC50, range)) was in the range of 35 to 620 nM; in assay [2] (read-out: LE_1b (EC50, range)) it was 5.01 to 35 nM.

For `CC[C@@H]1C[C@H](C)CC/C=C\[C@@H]2C[C@@]2(C(=O)NS(=O)(=O)C2(C)CC2)NC(=O)[C@@H]2C[C@@H](Oc3nc4cc(OC(C)C)ccc4nc3C(F)(F)F)CN2C(=O)[C@H]1NC(=O)OC(C)(C)C` [Compound 4362, tert-butyl ((2R,6S,7R,9R,13aS,14aR,16aS,Z)-7-ethyl-2-((7-isopropoxy-3-(trifluoromethyl)quinoxalin-2-yl)oxy)-9-methyl-14a-(((1-methylcyclopropyl)sulfonyl)carbamoyl)-5,16-dioxo-1,2,3,5,6,7,8,9,10,11,13a,14,14a,15,16,16a-hexadecahydrocyclopropa[e]pyrrolo[1,2-a][1,4]diazacyclopentadecin-6-yl)carbamate], the EC50 in assay [1] (read-out: LE_1a (EC50, range)) was 1.01 to 5 nM; in assay [2] (read-out: LE_1b (EC50, range)), 0.51 to 1 nM.

Take `CCOc1ccc2nc(C(F)(F)F)c(O[C@@H]3C[C@H]4C(=O)N[C@]5(C(=O)NS(=O)(=O)C6(C)CC6)C[C@H]5/C=C\CC[C@@H](C)C[C@@H](CC)[C@H](NC(=O)OC(C)(C)C)C(=O)N4C3)nc2c1` [Compound 4363, tert-butyl ((2R,6S,7R,9R,13aS,14aR,16aS,Z)-2-((7-ethoxy-3-(trifluoromethyl)quinoxalin-2-yl)oxy)-7-ethyl-9-methyl-14a-(((1-methylcyclopropyl)sulfonyl)carbamoyl)-5,16-dioxo-1,2,3,5,6,7,8,9,10,11,13a,14,14a,15,16,16a-hexadecahydrocyclopropa[e]pyrrolo[1,2-a][1,4]diazacyclopentadecin-6-yl)carbamate]: the EC50 in assay [1] (read-out: LE_1a (EC50, range)) fell in the range of 1.01 to 5 nM; in assay [2] (read-out: LE_1b (EC50, range)), 0.1 to 0.5 nM.
